From paper PMC9150124, “Design of a Potent, Selective, and Brain-Penetrant Inhibitor of Wnt-Deactivating Enzyme Notum by Optimization of a Crystallographic Fragment Hit” (Journal of Medicinal Chemistry, 2022)

Assays:
Experiment in all cases: SelectScreen kinase profiling, SSBK ZLyte SP Technology
Format in all cases: biochemical
[1] = biological target: kinase named in conditions (Homo sapiens, UniProt Q9P289); conditions: MST4, 10 μM
Protocol: (§1) Kinase selectivity screening was performed by Thermo Fisher Scientific (Paisley, U.K.) in their SelectScreen Biochemical Kinase Profiling Service. Assay information and data are presented in the Supporting Information.
(§2) Kinase selectivity screening was performed by ThermoFisher Scientific (Paisley, U.K.) in their SelectScreenTM
(§3) Biochemical Kinase Profiling service .

[2] = biological target: kinase named in conditions (Homo sapiens, UniProt O43781); conditions: DYRK3, 10 μM
Protocol: as §1, §2, §3

[3] = biological target: kinase named in conditions (Homo sapiens, UniProt P08631); conditions: HCK, 10 μM
Protocol: as §1, §2, §3

[4] = biological target: kinase named in conditions (Homo sapiens, UniProt P51812); conditions: RPS6KA3 (RSK2), 10 μM
Protocol: as §1, §2, §3

[5] = biological target: kinase named in conditions (Homo sapiens, UniProt O75116); conditions: ROCK2, 10 μM
Protocol: as §1, §2, §3

[6] = biological target: kinase named in conditions (Homo sapiens, UniProt P54646)
Chain of kinase named in conditions (Homo sapiens, UniProt P54646) (P54646 whole entry): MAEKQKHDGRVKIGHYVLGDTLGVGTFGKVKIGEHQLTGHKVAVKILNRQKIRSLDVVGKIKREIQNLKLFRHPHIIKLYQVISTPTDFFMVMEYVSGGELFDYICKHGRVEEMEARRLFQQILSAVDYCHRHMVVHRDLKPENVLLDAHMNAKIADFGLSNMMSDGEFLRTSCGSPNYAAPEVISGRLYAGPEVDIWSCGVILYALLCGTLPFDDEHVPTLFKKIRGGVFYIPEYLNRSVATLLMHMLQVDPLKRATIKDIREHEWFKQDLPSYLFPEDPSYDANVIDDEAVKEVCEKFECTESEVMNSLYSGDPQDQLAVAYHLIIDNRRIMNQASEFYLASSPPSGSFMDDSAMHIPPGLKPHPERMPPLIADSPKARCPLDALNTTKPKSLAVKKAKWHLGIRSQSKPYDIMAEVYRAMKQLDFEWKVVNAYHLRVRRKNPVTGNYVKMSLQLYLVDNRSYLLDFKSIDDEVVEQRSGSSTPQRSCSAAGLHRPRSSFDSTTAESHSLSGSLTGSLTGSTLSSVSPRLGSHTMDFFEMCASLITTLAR
Protocol: as §1, §2, §3

[7] = biological target: kinase named in conditions (Homo sapiens, UniProt P04626); conditions: ERBB2 (HER2), 10 μM
Protocol: as §1, §2, §3

[8] = biological target: kinase named in conditions (Homo sapiens, UniProt Q9UQB9); conditions: AURKC (Aurora C), 10 μM
Protocol: as §1, §2, §3

[9] = biological target: kinase named in conditions (Homo sapiens, UniProt Q8TD19); conditions: NEK9, 10 μM
Protocol: as §1, §2, §3

[10] = biological target: kinase named in conditions (Homo sapiens, UniProt P43403); conditions: ZAP70, 10 μM
Protocol: as §1, §2, §3

[11] = biological target: kinase named in conditions (Homo sapiens, UniProt P10721, V559D/V654A); conditions: KIT V559D V654A, 10 μM
Protocol: as §1, §2, §3

[12] = biological target: kinase named in conditions (Homo sapiens, UniProt P10721); conditions: KIT, 10 μM
Protocol: as §1, §2, §3

[13] = biological target: kinase named in conditions (Homo sapiens, UniProt P49674); conditions: CSNK1E (CK1 epsilon), 10 μM
Protocol: as §1, §2, §3

[14] = biological target: kinase named in conditions (Homo sapiens, UniProt Q9Y6M4); conditions: CSNK1G3 (CK1 gamma 3), 10 μM
Protocol: as §1, §2, §3

[15] = biological target: kinase named in conditions (Homo sapiens, UniProt P07948); conditions: LYN A, 10 μM
Chain of kinase named in conditions (Homo sapiens, UniProt P07948) (P07948 whole entry): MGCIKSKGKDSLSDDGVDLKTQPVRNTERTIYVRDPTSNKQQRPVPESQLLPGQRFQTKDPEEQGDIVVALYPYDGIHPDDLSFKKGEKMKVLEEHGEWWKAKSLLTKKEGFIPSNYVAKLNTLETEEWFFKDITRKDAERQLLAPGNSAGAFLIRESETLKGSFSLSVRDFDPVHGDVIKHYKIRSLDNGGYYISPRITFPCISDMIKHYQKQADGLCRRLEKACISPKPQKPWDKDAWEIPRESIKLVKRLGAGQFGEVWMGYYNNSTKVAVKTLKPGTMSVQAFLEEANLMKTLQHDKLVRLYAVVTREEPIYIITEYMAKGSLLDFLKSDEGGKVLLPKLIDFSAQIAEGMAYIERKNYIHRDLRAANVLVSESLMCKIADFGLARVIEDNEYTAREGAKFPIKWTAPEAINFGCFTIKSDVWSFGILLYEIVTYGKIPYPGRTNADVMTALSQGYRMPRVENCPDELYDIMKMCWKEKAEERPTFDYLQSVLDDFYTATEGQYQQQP
Protocol: as §1, §2, §3

[16] = biological target: kinase named in conditions (Homo sapiens, UniProt Q06187); conditions: BTK, 10 μM
Chain of kinase named in conditions (Homo sapiens, UniProt Q06187) (Q06187 whole entry): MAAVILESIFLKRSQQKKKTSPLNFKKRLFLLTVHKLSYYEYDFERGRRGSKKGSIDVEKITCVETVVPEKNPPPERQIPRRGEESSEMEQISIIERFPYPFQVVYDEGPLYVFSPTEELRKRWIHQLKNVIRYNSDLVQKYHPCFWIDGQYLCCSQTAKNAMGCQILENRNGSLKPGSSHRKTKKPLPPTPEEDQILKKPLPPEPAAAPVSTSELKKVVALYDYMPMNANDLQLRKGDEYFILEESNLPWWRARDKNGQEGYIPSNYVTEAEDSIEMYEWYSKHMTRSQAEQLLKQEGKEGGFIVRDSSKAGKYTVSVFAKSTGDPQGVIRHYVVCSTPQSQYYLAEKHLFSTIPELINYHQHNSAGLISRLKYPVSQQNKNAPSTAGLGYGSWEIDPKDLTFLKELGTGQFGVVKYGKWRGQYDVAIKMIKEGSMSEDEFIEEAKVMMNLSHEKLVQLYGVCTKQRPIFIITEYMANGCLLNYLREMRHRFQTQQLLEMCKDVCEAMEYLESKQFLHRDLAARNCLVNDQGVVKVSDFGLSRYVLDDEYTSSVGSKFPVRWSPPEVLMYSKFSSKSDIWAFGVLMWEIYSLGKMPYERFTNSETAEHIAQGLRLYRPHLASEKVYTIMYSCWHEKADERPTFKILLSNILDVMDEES
Protocol: as §1, §2, §3

[17] = biological target: kinase named in conditions (Homo sapiens, UniProt Q13043); conditions: STK4 (MST1), 10 μM
Chain of kinase named in conditions (Homo sapiens, UniProt Q13043) (Q13043 whole entry): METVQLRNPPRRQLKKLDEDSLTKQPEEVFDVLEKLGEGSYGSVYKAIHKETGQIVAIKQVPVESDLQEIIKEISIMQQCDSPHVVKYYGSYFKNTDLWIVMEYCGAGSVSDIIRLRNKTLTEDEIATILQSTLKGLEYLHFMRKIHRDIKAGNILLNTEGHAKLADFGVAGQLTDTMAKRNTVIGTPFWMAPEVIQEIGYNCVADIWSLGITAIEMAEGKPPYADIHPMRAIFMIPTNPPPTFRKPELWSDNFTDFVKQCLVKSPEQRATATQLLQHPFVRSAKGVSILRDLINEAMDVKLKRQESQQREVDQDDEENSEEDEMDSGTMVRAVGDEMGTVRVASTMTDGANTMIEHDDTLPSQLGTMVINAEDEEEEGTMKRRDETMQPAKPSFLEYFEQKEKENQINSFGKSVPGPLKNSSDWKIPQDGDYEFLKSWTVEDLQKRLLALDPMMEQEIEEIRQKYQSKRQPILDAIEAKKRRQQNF
Protocol: as §1, §2, §3

[18] = biological target: kinase named in conditions (Homo sapiens, UniProt P43405); conditions: SYK, 10 μM
Protocol: as §1, §2, §3

[19] = biological target: kinase named in conditions (Homo sapiens, UniProt Q00537); conditions: CDK17/cyclin Y, 10 μM
Protocol: as §1, §2, §3

[20] = biological target: kinase named in conditions (Homo sapiens, UniProt Q9H4B4); conditions: PLK3, 10 μM
Protocol: as §1, §2, §3

[21] = biological target: kinase named in conditions (Homo sapiens, UniProt P15056, V600E); conditions: BRAF V599E, 10 μM
Protocol: as §1, §2, §3

[22] = biological target: kinase named in conditions (Homo sapiens, UniProt Q5VT25); conditions: CDC42 BPA (MRCKA), 10 μM
Chain of kinase named in conditions (Homo sapiens, UniProt Q5VT25) (Q5VT25 whole entry): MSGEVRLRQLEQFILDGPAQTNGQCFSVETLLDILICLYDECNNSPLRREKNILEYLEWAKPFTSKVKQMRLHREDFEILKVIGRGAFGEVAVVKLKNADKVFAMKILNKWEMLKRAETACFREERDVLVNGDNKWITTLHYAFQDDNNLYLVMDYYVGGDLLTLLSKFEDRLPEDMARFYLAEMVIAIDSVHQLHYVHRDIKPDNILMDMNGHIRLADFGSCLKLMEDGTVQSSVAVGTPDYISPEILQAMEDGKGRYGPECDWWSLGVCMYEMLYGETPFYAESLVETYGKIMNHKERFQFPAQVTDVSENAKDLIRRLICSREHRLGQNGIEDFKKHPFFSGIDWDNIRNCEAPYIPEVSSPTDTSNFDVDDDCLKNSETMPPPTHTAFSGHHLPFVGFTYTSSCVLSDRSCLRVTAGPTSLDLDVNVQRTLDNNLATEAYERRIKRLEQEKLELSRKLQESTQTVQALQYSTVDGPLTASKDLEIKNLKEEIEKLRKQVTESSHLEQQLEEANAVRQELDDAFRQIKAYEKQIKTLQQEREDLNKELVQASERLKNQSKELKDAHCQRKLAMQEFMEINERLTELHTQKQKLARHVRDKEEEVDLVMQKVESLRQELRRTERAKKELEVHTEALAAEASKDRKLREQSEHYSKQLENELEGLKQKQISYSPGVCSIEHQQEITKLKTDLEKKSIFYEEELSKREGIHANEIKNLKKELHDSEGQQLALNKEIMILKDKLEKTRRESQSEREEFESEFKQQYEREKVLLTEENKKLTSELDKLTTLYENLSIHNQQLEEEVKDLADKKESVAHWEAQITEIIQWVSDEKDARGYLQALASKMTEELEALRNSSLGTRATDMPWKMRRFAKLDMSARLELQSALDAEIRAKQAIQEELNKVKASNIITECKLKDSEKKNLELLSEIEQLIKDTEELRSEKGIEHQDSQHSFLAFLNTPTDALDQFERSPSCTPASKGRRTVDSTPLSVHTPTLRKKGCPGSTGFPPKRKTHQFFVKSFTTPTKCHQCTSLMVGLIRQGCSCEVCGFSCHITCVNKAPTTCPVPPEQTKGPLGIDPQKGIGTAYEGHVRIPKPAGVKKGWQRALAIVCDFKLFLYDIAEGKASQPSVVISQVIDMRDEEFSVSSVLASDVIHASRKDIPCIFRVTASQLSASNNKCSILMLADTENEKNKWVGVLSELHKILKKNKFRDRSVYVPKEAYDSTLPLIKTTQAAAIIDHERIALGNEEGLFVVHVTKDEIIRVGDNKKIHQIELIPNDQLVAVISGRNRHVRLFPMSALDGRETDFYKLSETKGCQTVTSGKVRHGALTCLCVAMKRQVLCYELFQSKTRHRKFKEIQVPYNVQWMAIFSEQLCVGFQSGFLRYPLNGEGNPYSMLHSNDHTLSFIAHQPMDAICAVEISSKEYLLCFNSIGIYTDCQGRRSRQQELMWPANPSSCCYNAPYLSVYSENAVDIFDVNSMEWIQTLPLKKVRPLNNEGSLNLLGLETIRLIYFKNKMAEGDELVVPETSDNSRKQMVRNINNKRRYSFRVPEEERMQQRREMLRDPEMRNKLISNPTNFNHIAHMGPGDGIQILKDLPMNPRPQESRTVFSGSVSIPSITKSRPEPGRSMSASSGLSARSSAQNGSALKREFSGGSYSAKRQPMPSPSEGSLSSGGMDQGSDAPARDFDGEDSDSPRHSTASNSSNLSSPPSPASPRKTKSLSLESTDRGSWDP
Protocol: as §1, §2, §3

[23] = biological target: kinase named in conditions (Homo sapiens, UniProt P00533, T790M); conditions: EGFR (ErbB1) T790M, 10 μM
Protocol: as §1, §2, §3

[24] = biological target: kinase named in conditions (Homo sapiens, UniProt Q96GD4); conditions: AURKB (Aurora B), 10 μM
Protocol: as §1, §2, §3

[25] = biological target: kinase named in conditions (Homo sapiens, UniProt P78368); conditions: CSNK1G2 (CK1 gamma 2), 10 μM
Protocol: as §1, §2, §3

[26] = biological target: kinase named in conditions (Homo sapiens, UniProt Q16539); conditions: 10 μM
Chain of kinase named in conditions (Homo sapiens, UniProt Q16539) (Q16539 whole entry): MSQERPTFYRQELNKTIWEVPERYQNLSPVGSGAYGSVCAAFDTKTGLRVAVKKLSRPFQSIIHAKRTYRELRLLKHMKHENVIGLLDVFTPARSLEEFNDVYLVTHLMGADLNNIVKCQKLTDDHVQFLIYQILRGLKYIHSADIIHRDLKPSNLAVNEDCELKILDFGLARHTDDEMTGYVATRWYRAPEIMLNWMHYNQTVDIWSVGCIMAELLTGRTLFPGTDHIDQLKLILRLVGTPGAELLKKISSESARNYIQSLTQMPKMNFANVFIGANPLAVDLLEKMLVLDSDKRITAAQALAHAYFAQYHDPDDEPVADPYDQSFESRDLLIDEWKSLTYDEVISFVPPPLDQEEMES
Protocol: as §1, §2, §3

[27] = biological target: kinase named in conditions (Homo sapiens, UniProt P43250); conditions: GRK6, 10 μM
Protocol: as §1, §2, §3

[28] = biological target: kinase named in conditions (Homo sapiens, UniProt P49137); conditions: MAPKAPK2, 10 μM
Protocol: as §1, §2, §3

[29] = biological target: kinase named in conditions (Homo sapiens, UniProt Q16512); conditions: PKN1 (PRK1), 10 μM
Protocol: as §1, §2, §3

[30] = biological target: kinase named in conditions (Homo sapiens, UniProt P00533, C797S/L858R/T790M); conditions: EGFR (ErbB1) T790M C797S L858R, 10 μM
Protocol: as §1, §2, §3

[31] = biological target: kinase named in conditions (Homo sapiens, UniProt Q9NR20); conditions: read-out: % Inhibition mean
Protocol: as §1, §2, §3

[32] = biological target: kinase named in conditions (Homo sapiens, UniProt P15056); conditions: BRAF, 10 μM
Protocol: as §1, §2, §3

[33] = biological target: kinase named in conditions (Homo sapiens, UniProt O75914); conditions: PAK3, 10 μM
Chain of kinase named in conditions (Homo sapiens, UniProt O75914) (O75914 whole entry): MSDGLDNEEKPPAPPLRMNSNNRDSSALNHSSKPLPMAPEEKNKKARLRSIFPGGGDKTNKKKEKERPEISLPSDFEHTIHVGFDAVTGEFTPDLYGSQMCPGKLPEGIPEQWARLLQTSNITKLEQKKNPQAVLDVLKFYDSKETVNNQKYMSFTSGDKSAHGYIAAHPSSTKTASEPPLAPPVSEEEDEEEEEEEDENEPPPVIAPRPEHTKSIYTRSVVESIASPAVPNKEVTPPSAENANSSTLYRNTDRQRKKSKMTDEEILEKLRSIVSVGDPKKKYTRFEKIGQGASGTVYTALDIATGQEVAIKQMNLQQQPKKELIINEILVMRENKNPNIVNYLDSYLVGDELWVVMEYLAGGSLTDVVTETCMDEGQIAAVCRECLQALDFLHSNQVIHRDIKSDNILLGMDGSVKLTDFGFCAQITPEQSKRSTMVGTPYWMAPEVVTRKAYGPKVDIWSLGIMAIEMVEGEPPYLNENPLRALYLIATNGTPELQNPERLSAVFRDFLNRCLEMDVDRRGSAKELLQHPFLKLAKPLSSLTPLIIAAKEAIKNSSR
Protocol: as §1, §2, §3

In the case of `FC(F)(F)c1c(Cl)ccc(-n2ccnn2)c1Cl` [8l, 1-(2,4-Dichloro-3-(trifluoromethyl)phenyl)-1H-1,2,3-triazole], the inhibition at 10 µM [1] is reported as 23%, the inhibition at 10 µM [2] is reported as 1% and the inhibition at 10 µM [3] is reported as 10%. The inhibition at 10 µM [4] was -3%, the inhibition at 10 µM [5] was 16% and the inhibition at 10 µM ([6]; AMPK (A2/B1/G2), 10 μM) was -2%. The inhibition at 10 µM ([6]; AMPK (A2/B1/G3), 10 μM) was 2%, the inhibition at 10 µM ([6]; AMPK (A2/B2/G3), 10 μM) was 3% and the inhibition at 10 µM ([6]; AMPK A2/B1/G1, 10 μM) was 14%. For the same compound, the inhibition at 10 µM [7] was 0%, the inhibition at 10 µM [8] was 19% and the inhibition at 10 µM [9] was -3%. The inhibition at 10 µM [10] was 24%, the inhibition at 10 µM [11] was 1% and the inhibition at 10 µM [12] was -7%. It also gave an inhibition at 10 µM [13] of 1%, an inhibition at 10 µM [14] of 0% and an inhibition at 10 µM [15] of -1%. For the same compound, the inhibition at 10 µM [16] was 21%, the inhibition at 10 µM [17] was 1% and the inhibition at 10 µM [18] was 6%. For the same compound, the inhibition at 10 µM [19] was 1%, the inhibition at 10 µM [20] was 5% and the inhibition at 10 µM [21] was 5%. For the same compound, the inhibition at 10 µM [22] was -3%, the inhibition at 10 µM [23] was 9% and the inhibition at 10 µM [24] was 7%. For the same compound, the inhibition at 10 µM [25] was -2%, the inhibition at 10 µM ([26]; MAPK14 (p38 alpha) Direct) was -3% and the inhibition at 10 µM ([26]; MAPK14 (p38 alpha)) was -1%. It also gave an inhibition at 10 µM [27] of 2%, an inhibition at 10 µM [28] of 1% and an inhibition at 10 µM [29] of -1%. It also gave an inhibition at 10 µM [30] of -17%, an inhibition at 10 µM [31] of 1% and an inhibition at 10 µM [32] of 9%. It also gave an inhibition at 10 µM [33] of 8%.
